Assay [1] concerns the target T1, GRK2 (Homo sapiens, UniProt P25098).
T1 sequence (P25098 1-689): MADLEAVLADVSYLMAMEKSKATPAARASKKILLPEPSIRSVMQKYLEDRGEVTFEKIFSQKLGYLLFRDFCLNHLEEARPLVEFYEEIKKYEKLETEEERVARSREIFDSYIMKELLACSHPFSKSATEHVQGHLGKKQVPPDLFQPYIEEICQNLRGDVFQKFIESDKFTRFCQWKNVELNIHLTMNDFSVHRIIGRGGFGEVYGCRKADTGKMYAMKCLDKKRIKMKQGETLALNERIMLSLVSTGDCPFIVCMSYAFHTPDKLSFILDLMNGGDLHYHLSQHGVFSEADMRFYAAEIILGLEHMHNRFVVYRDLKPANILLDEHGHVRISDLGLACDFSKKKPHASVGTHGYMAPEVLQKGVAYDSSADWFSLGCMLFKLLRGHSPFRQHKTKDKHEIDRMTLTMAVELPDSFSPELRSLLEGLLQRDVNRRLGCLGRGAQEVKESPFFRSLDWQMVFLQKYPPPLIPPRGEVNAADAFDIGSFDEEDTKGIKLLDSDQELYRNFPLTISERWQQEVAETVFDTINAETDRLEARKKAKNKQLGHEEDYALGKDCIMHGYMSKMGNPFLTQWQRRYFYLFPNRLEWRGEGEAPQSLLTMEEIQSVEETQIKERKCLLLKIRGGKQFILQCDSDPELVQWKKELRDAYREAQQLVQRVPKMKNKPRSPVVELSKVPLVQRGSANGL
Briefly: GRK2 Inhibition Assay (TR-FRET, Example 1). It counts as biochemical. The conditions noted are these: TR-FRET, 7 μM ATP; read-out: Enzymatic GRK2 Assay: IC50 (nM) (Example 1). On the procedure: Assay: GRK2 enzyme (1 nM final concentration) was diluted in 25 mM HEPES, 10 mM MgCl2, 2 mM DTT, 0.01% Tween-20, and 1 mM EGTA. Then the GRK2 mixture was added into ProxiPlate-384 white plate and pre-incubated for 30 min with test compounds at room temperature. ATP (7 μM final concentration) and Ulight TopoIIα (50 nM final concentration) were added into the assay plate to initiate the reaction and the mixture was incubated at room temperature for 90 min. Then, Eu anti-TopoIIα (0.12 nM final concentration), BSA (0.01% final concentration), and EDTA (11 mM final concentration) in LANCE assay buffer were added into each well. After 60 min incubation time at room temperature, TR-FRET signal was measured by EnVision plate reader.
For orientation: In TR-FRET formats the signal depends on donor and acceptor labels being close together.

The test system of a further assay is PAXF1657 EV. In words: 7-day cellular proliferation assay (CellTiter-Glo), PAXF1657 EV. The class given is cell-based. As to conditions: proliferation, read-out: GeoMean IC50 (UM) PAXF1657 EV. The method, then:
(§1) In order to identify compounds specific for GRK2, we generated two isogenic cell line pairs of the pancreatic cancer cell line PAXF1657, a pair of cells stably overexpressing GRK2 cDNA or the control empty vector and a cell line pair of PAXF1657 GRK2 knockout clonal cells versus non-targeting control clonal cells.
(§2) Proliferation Assay: Cellular anti-proliferative activity of compounds was assessed by using the pancreatic cancer cell line, PAXF1657, stably overexpressing GRK2 cDNA or the control empty vector, as well as the parental urinary bladder cancer cell line, 5637. In addition, we also took advantage of GRK2 knockout cell lines that were generated via CRISPR. Cell lines were seeded into tissue culture treated, white-walled, 96-well plates at a density of 500 cells/well in RPMI1640 media supplemented with 10% H.I. FBS and penicillin/streptomycin. Plates were incubated overnight at 37° C., 5% CO2 to allow cells to adhere to the wells. GRK2 inhibitors were added to the cells using a 10-point dilution series with a final concentration ranging from 30 μM-0.0002 μM in 0.3% DMSO. At the time of compound addition, a set of plates, that were not treated with compounds, were collected and cell viability was measured using CellTiter-Glo (Promega). CellTiter-Glo reagent was added to the designed plates and luminescence was measuring using a Biotek Synergy plate reader. The compound treated cells were incubated for 3 days at 37° C., 5% CO2. The media was then aspirated from each well and replaced with fresh media containing GRK2 inhibitors. The compound treated cells were then incubated for an additional 4 days at 37° C., 5% CO2. Cell viability was assessed and at end of the 7-day compound treatment by CellTiterGlo.
In general terms: In ATP-based viability assays light output follows the ATP content of the culture.

For another assay, the system named is PAXF1657 KO Clone #4. In words: 7-day cellular proliferation assay (CellTiter-Glo), PAXF1657 KO Clone #4. It counts as cell-based. The conditions noted are these: proliferation, read-out: GeoMean IC50 (uM) PAXF1657 KO Clone #4. On the procedure: as §1, §2
For assay [2], the target named is T1, GRK2. Briefly: GRK2 Degradation Assay and Western Blot in PAXF1657 cells. It counts as cell-based. Set-up: endogenous in cells; host or cells: PAXF1657. As to conditions: read-out: Degradation Assay - 3 point: Degradation (%). The method, then: General Protocol: Degradation Assay and Western Blot. PAXF1657 cells were plated in 6-well, 24-well plates or 60 mm tissue culture treated dishes and incubated at 37° C. until 70% confluency. The media was aspirated, and the cells were treated with fresh media containing the compounds in the concentration range of 0 μM to 10 μM for a period of 6 to 24 hours. At the desired time points the cells were washed twice with cold PBS and lysed with lysis buffer (ice cold PBS+1% NP40 with 1/100 protease/phosphatase inhibitors) on ice for 8 mins followed by sonication at 70% intensity pulses for 10 seconds. The cells were centrifuged at 20000 g for 8 min at 4° C. The supernatants were collected and stored at −80° C.
Samples were mixed with NuPAGE LDS sample buffer and NuPAGE sample reducing buffer (3×), vortexed and heated at 95° C. for 10 min, and then analyzed by SDS-PAGE (NuPAGE 4-12%) followed by transfer to nitrocellulose membrane. […] The membranes were washed three times with TBST and incubated with GRK2 or R-actin antibodies in 5% milk in TBST at 4° C. overnight. The membranes were washed three times with TBST and incubated with anti-mouse IgG-HRP or anti-rabbit IgG-HRP at room temperature for 2 hours in 5% milk in TBST. The membranes were washed three times with TBST and developed with ECL Dura, ECL femto or ECL atto substrates.

This note sets out measurements from patent US20240174637A1, “DEGRADERS OF GRK2 AND USES THEREOF” (Sonata Therapeutics, Inc., priority 2021, published 2024).

Structures are written as SMILES. Where two headings read alike, the source gives them in different places.

Regarding `C[C@H](NC(=O)c1cccc(NCc2nnc(-c3ccncn3)n2C)c1)c1cc(OCCCCCCOCCOCCOCCCCCC(=O)Nc2cccc3c2CN(C2CCC(=O)NC2=O)C3=O)ccc1F` (stereo partly drawn) [Compound D53, N-((1S)-1-(5-((6-(2-(2-((6-((2-(2,6-dioxopiperidin-3-yl)-1-oxoisoindolin-4-yl)amino)-6-oxohexyl)oxy)ethoxy)ethoxy)hexyl)oxy)-2-fluorophenyl)ethyl)-3-(((4-methyl-5-(pyrimidin-4-yl)-4H-1,2,4-triazol-3-yl)methyl)amino)benzamide], at GRK2 [1], the IC50 (in general, the concentration that gives 50% inhibition) is 100 to 1000 nM.
Turning to `C[C@@H](NC(=O)c1cccc(NCc2nnc(-c3ccncn3)n2C)c1)c1cc(OCCCCCCOCCOCCOCCCCCC(=O)Nc2cccc3c2CN(C2CCC(=O)NC2=O)C3=O)ccc1F` (stereo partly drawn) [Compound D54, N-((1R)-1-(5-((6-(2-(2-((6-((2-(2,6-dioxopiperidin-3-yl)-1-oxoisoindolin-4-yl)amino)-6-oxohexyl)oxy)ethoxy)ethoxy)hexyl)oxy)-2-fluorophenyl)ethyl)-3-(((4-methyl-5-(pyrimidin-4-yl)-4H-1,2,4-triazol-3-yl)methyl)amino)benzamide], the IC50 on GRK2 [1] is less than 100 nM.
On the same count and under the same terms, under `C[C@H](NC(=O)c1cccc(NCc2nnc(-c3ccncn3)n2C)c1)c1cccc(OCCCCCCOCCOCCOCCCCCC(=O)Nc2cccc3c2CN(C2CCC(=O)NC2=O)C3=O)c1` (stereo partly drawn) [Compound D55, N-((1S)-1-(3-((6-(2-(2-((6-((2-(2,6-dioxopiperidin-3-yl)-1-oxoisoindolin-4-yl)amino)-6-oxohexyl)oxy)ethoxy)ethoxy)hexyl)oxy)phenyl)ethyl)-3-(((4-methyl-5-(pyrimidin-4-yl)-4H-1,2,4-triazol-3-yl)methyl)amino)benzamide] stands less than 100 nM.
As for `Cc1ncsc1-c1ccc(CNC(=O)[C@@H]2C[C@@H](O)CN2C(=O)[C@@H](NC(=O)CCCCCOCCOCCOCCCCCCOc2ccc(F)c([C@H](C)NC(=O)c3cccc(NCc4nnc(-c5ccncn5)n4C)c3)c2)C(C)(C)C)cc1` [Compound D74, (2S,4R)-1-((S)-2-(tert-butyl)-22-(4-fluoro-3-((S)-1-(3-(((4-methyl-5-(pyrimidin-4-yl)-4H-1,2,4-triazol-3-yl)methyl)amino)benzamido)ethyl)phenoxy)-4-oxo-10,13,16-trioxa-3-azadocosan-1-oyl)-4-hydroxy-N-(4-(4-methylthiazol-5-yl)benzyl)pyrrolidine-2-carboxamide], the IC50 on GRK2 [1] fell in the range of 100 to 1000 nM.
On the same count and under the same terms, the figure for `Cc1ncsc1-c1ccc(CNC(=O)[C@@H]2C[C@@H](O)CN2C(=O)[C@@H](NC(=O)CCCCCOCCOCCOCCCCCCOc2ccc(F)c([C@@H](C)NC(=O)c3cccc(NCc4nnc(-c5ccncn5)n4C)c3)c2)C(C)(C)C)cc1` [Compound D75, (2S,4R)-1-((S)-2-(tert-butyl)-22-(4-fluoro-3-((R)-1-(3-(((4-methyl-5-(pyrimidin-4-yl)-4H-1,2,4-triazol-3-yl)methyl)amino)benzamido)ethyl)phenoxy)-4-oxo-10,13,16-trioxa-3-azadocosan-1-oyl)-4-hydroxy-N-(4-(4-methylthiazol-5-yl)benzyl)pyrrolidine-2-carboxamide] is less than 100 nM.
Turning to `Cn1c(CNc2cccc(C(=O)N[C@@H]3CCOc4ccc(OCCCCCCOCCOCCOCCCCCC(=O)Nc5cccc6c5CN(C5CCC(=O)NC5=O)C6=O)cc43)c2)nnc1-c1ccncn1` (stereo partly drawn) [Compound D187, N-((4R)-6-(6-(2-(2-(6-(2-(2,6-dioxopiperidin-3-yl)-1-oxoisoindolin-4-ylamino)-6-oxohexyloxy)ethoxy)ethoxy)hexyloxy)chroman-4-yl)-3-((4-methyl-5-(pyrimidin-4-yl)-4H-1,2,4-triazol-3-yl)methylamino)benzamide], the IC50 with PAXF1657 EV was 2090 nM; in the assay on PAXF1657 KO Clone #4, greater than 30 µM. Moreover, at GRK2 [2] (Conc 0.3 uM), the inhibition at 0.3 µM stood at 11.8%. For the same molecule, the inhibition at 1 µM on GRK2 [2] (Conc 1 uM) worked out at 23.8%. The inhibition at 3 µM at GRK2 [2] (Conc 3 uM) turned out to be 63.1%.
`Cn1c(CNc2cccc(C(=O)N[C@@H]3CCOc4ccc(OCCCCCCOCCOCCOCCCCCC(=O)N5CCN(c6ccc7c(c6)CN(C6CCC(=O)NC6=O)C7=O)CC5)cc43)c2)nnc1-c1ccncn1` (stereo partly drawn) [Compound D188, N-((4R)-6-(6-(2-(2-(6-(4-(2-(2,6-dioxopiperidin-3-yl)-1-oxoisoindolin-5-yl)piperazin-1-yl)-6-oxohexyloxy)ethoxy)ethoxy)hexyloxy)chroman-4-yl)-3-((4-methyl-5-(pyrimidin-4-yl)-4H-1,2,4-triazol-3-yl)methylamino)benzamide]: in the assay on PAXF1657 EV, the IC50 stood at 1260 nM. Also, the IC50 with PAXF1657 KO Clone #4 is greater than 30 µM. For the same molecule, on GRK2 [2], the inhibition at 0.3 µM amounted to 56.9%, the inhibition at 1 µM turned out to be 67.7% and the inhibition at 3 µM was 78.2%.
Take `Cn1c(CNc2cccc(C(=O)NCc3cccc(OCCCCCOCCCOCC(=O)N4CCN(c5ccc6c(c5)CN(C5CCC(=O)NC5=O)C6=O)CC4)c3)c2)nnc1-c1ccncn1` (stereo not shown) [Compound D189, N-(3-((5-(3-(2-(4-(2-(2,6-dioxopiperidin-3-yl)-1-oxoisoindolin-5-yl)piperazin-1-yl)-2-oxoethoxy)propoxy)pentyl)oxy)benzyl)-3-(((4-methyl-5-(pyrimidin-4-yl)-4H-1,2,4-triazol-3-yl)methyl)amino)benzamide]: the IC50 in the assay on PAXF1657 EV is 420 nM; in the assay on PAXF1657 KO Clone #4, greater than 30 µM. The inhibition at 0.3 µM on GRK2 [2] (Conc 0.3 uM) was determined as 2.78%. Moreover, the inhibition at 1 µM on GRK2 [2] (Conc 1 uM) was found to be 35.8%. On GRK2 [2] (Conc 3 uM), the inhibition at 3 µM came out at 58.5%.
Take `Cn1c(CNc2cccc(C(=O)NCc3cccc(OCCCCCCOCCOCCOCCC(=O)Nc4cccc5c4CN(C4CCC(=O)NC4=O)C5=O)c3)c2)nnc1-c1ccncn1` (stereo not shown) [Compound D195, N-(3-(6-(2-(2-(3-(2-(2,6-dioxopiperidin-3-yl)-1-oxoisoindolin-4-ylamino)-3-oxopropoxy)ethoxy)ethoxy)hexyloxy)benzyl)-3-((4-methyl-5-(pyrimidin-4-yl)-4H-1,2,4-triazol-3-yl)methylamino)benzamide]: the IC50 with PAXF1657 EV is 1090 nM; with PAXF1657 KO Clone #4, greater than 30 µM. The inhibition at 0.3 µM at GRK2 [2] (Conc 0.3 uM) is -46.4%. Besides, at GRK2 [2] (Conc 1 uM), the inhibition at 1 µM was 9.8%. In addition, the inhibition at 3 µM on GRK2 [2] (Conc 3 uM) is 32.1%.
